Laboratory results: patent US11685782B2, “Methods of treating cancer using LSD1 inhibitors in combination with immunotherapy” (Children's Medical Center Corporation, priority 2017, dated 2023)

Assays:
AGO2 = assay: Mass spectrometry of lysine methylation on FH-AGO2 purified from MCF-7 cells; format: cell-based, human; conditions: overexpressed FH-AGO2 from MCF-7 cells, mass spectrometry (FIG. 5I)
Source text: FIG. 5I is a picture of immunoblots showing purified FH-AGO2 from MCF-7 cells treated by LSD1 KD or GSK-LSD1 as determined by mass spectrometry for the identification of lysine methylation. sh-Ctrl ([…]; SEQ ID NO: 156) and sh-LSD1, GSK-LSD1(VGK(me)[…]; SEQ ID NO: 157).
To investigate whether LSD1 regulates AGO2 stability by controlling AGO2 methylation, overexpressed FH-AGO2 from MCF-7 cells with or without LSD1 inhibition were purified and used for mass spectrometry analysis. […] To validate this finding, an antibody was raised that preferentially recognized AGO2 peptides mono-methylated at K726 (K726me1) compared with un-methylated or di-methylated peptides (FIG. 5J). Furthermore, this antibody detected increased K726me1 on ectopically expressed AGO2 when LSD1 was inhibited, which can be abrogated by substituting K726 with arginine (K726R) or alanine (K726A) (FIGS. 5K and 5L). […] To gain more insights into this regulation, an in vitro demethylation assay was performed using immunoprecipitated FH-LSD1, FH-LSD1-K661A (catalytically compromised LSD1), FH-AGO2 and FH-AGO2-K726R proteins purified from mammalian cells. FH-LSD1 but not FH-LSD1-K661A decreased K726me1 level on FH-AGO2, but had no observable effects on FH-AGO2-K726R (FIGS. 5N and 5O).

MCF-7 cells = assay: RT-qPCR of selected ERVs, interferons and ISGs in MCF-7 cells treated with GSK-LSD1 (compound screen); format: cell-based, human; conditions: GSK-LSD1 for 6 days, RT-qPCR normalized to GAPDH, relative to DMSO (FIG. 1A)
Procedure: FIG. 1A is a bar graph showing quantitative reverse transcription polymerase chain reaction (RT-qPCR) analysis of selected endogenous retroviruses (ERVs) (HERV-E, HERV-F, HERV-K, HML-2, and ERVL), IFNs (IFN-α, IFN-β and IL-28) and ISGs (ISG15 and OASL) in human MCF-7 breast cancer cells treated with or without GSK-LSD1 for 6 days. The RT-qPCR data were normalized to GAPDH and then relative to DMSO. RT-qPCR was performed in duplicates and repeated two to three times. Error bars represent the standard error of mean (SEM). *p<0.05, **p<0.01, ***p<0.001, ns, not significant, as determined by unpaired t-test.
MCF-7, T47D, B16, LLC and D4m cells were cultured in normal DMEM supplemented with 10% FBS and 1% penicillin/streptomycin in 5% CO2 incubator at 37° C. All cell lines were cultured in 5% CO2 incubator at 37° C., and passaged every 2-3 days. […]
All reagents, buffers and containers used for RNA work were RNase-free grade or treated with 0.1% v/v DEPC (Sigma-Aldrich cat #D5758) if applicable, to eliminate RNase contaminants in this section and other relevant sections. […] The obtained cDNA samples were diluted and used for real-time quantitative PCR (RT-qPCR). […]
Of note, the PCR primers detected overall transcript levels of the corresponding ERV subfamilies, which may be transcribed from multiple genomic loc. […]

Structure (SMILES): Cl.Cl.c1ccc([C@@H]2C[C@H]2NC2CCNCC2)cc1 (relative stereo) [GSK-LSD1, rel-N-[(1R,2S)-2-Phenylcyclopropyl]-4-Piperidinamine hydrochloride (1:2)]
- methylation of AGO2 lysine 726 (K726) (AGO2): consistently mono-methylated
- up-regulation of selected ERVs, type I and type III interferons and interferon-stimulated genes (ISGs) (MCF-7 cells): significantly induce the up-regulation
